From US20030032635A1, “Heterocyclic esters and amides” (priority 1996, published 2003)
pKi: −log10 of the molar value.

Assays:
[1] = system: chick dorsal root ganglia (sensory neurons); assay: Chick dorsal root ganglion cultures and neurite outgrowth; assay type: cell-based
Description: Dorsal root ganglia were dissected from chick embryos of ten day gestation. Whole ganglion explants were cultured on thin layer Matrigel-coated 12 well plates with Liebovitz L15 plus high glucose media supplemented with 2 mM glutamine and 10% fetal calf serum, and also containing 10 μM cytosine β-D arabinofuranoside (Ara C) at 37° C. in an environment containing 5% CO2. Twenty four hours later, the DRGs were treated with various immunophilin ligands. Forty-eight hours after drug treatment, the ganglia were visualized under phase contrast or Hoffman Modulation contrast with a Zeiss Axiovert inverted microscope. Photomicrographs of the explants were made, and neurite outgrowth was quantitated. Neurites longer than the DRG diameter were counted as positive, with total number of neurites quanitated per each experimental condition. Three to four DRGs are cultured per well, and each treatment was performed in duplicate.
The data for these experiments for representative compounds are presented in the “ED50” column of Table III.

FKBP12 (FKBP) = FKBP12 (FKBP) (Homo sapiens, UniProt P62942); assay: Ki test procedure: inhibition of peptidyl-prolyl isomerase (rotamase) activity, chymotrypsin-coupled assay; assay type: biochemical; conditions: apparent Ki, substrate N-succinyl-Ala-Ala-Pro-Phe-p-nitroanilide
Sequence of FKBP12 (FKBP) (P62942 whole entry, species assumed): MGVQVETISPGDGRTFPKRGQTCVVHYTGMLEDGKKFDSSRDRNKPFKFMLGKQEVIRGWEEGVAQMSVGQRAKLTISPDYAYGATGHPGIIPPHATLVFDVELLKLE
Text: As discussed above, the compounds of the present invention have an affinity, for the FK506 binding protein, particularly FKBP12. The inhibition of the prolyl peptidyl cis-trans isomerase activity of FKBP may be measured as an indicator of this affinity.
Inhibition of the peptidyl-prolyl isomerase (rotamase) activity of the inventive compounds can be evaluated by known methods described in the literature (Harding, et al., Nature, 1989, 341:758-760; Holt et al. J. Am. Chem. Soc., 115:9923-9938). The cis-trans isomerization of an alanine-proline bond in a model substrate, N-succinyl-Ala-Ala-Pro-Phe-p-nitroanilide, is monitored spectrophotometrically in a chymotrypsin-coupled assay, which releases paranitroanilide from the trans form of the substrate. The inhibition of this reaction caused by the addition of different concentrations of inhibitor is determined, and the data is analyzed as a change in first-order rate constant as a function of inhibitor concentration to yield the apparent Ki values. […]
The absorbance at 390 nm versus time is monitored for 90 seconds using a spectrophotometer and the rate constants are determined from the absorbance versus time data files. […]

| Structure (SMILES) | neurite outgrowth in sensory neurons (photomicrograph) ([1]; 10 pM) | neurite outgrowth in sensory neurons (photomicrograph) ([1]; 100 pM) | neurite outgrowth in sensory neurons (photomicrograph) ([1]; 10 nM) | pKi (FKBP12 (FKBP)) | neurite outgrowth in sensory neurons (photomicrograph) ([1]; 1 pM) |
| --- | --- | --- | --- | --- | --- |
| CCC(C)(C)C(=O)C(=O)N1CSCC1C(=O)OCCCc1cccnc1 [Compound 2, 3-(3-pyridyl)-1-propyl(2S)-1-(3,3-dimethyl-1,2-dioxopentyl) -2-(4-thiazolidine) carboxylate] | promoting neurite outgrowth | promoting neurite outgrowth | promoting neurite outgrowth | 6.20 | – |
| CCC(C)(C)C(=O)C(=O)N1CSCC1C(=O)OCCCc1ccccc1 [Compound 1, 3-phenyl-1-propyl(2S)-1-(3,3-dimethyl-1,2-dioxopentyl)-2-(4-thiazolidine)carboxylate] | promoting neurite outgrowth | promoting neurite outgrowth | – | 6.67 | promoting neurite outgrowth |
